Legend:
[1] = Iron reducing power (IRP); settings: samples at 100 µg/mL; mean ± SE, n = 3
Experimental: ammonium molybdate. Methanol (80%) was used in place of the sample for the blank. The tubes were sealed and incubated in a boiling water bath for 90 minutes.
After cooling to room temperature, the absorbance was measured at 695 nm against the blank. […] was used at the same concentrations as a standard. The antioxidant capacity was expressed as mg gallic acid equivalent per gram weight.
The iron reducing power was determined as µg/mL using the method proposed by Oyaizu (1986). In brief, 1ml of the tested sample (at each concentration) was combined with 1mL of 200mM sodium phosphate buffer (pH 6.6) and 1mL of 1% potassium ferricyanide. […] The absorbance was measured at 700nm against a blank prepared without the sample. […] A high absorbance at 700nm indicates a higher reducing power in the reaction mixture.
The 1,1-Diphenyl-2-picryl-hydrazyl (DPPH) radical scavenging activities were evaluated using the method described by Rahman et al. An antioxidant substance capable of donating a hydrogen atom to a solution containing DPPH- can reduce the stable free radical, causing the solution to change color from violet to pale yellow.
The remaining DPPH- radical was quantified by measuring the intensity of a light-purple colored DPPH methanol solution in the visible range at 518 nm using a spectroscopic method. […]

[2] = tested on: caspase-3 in BJ-1 cells; assay: Caspase-3 ELISA in treated BJ-1 cells; type: cell-based, human; settings: BJ-1 cells treated at the IC50 value, mean ± SE, n = 3
Experimental: Following the treatment of HepG-2, Caco-2, A549, and BJ-1 cells with the SB-CuO-NPs at their respective IC50 values, as illustrated in Figure 9 and detailed in Table 5, an assessment of the activities of the caspase-3 and Bcl-2 enzymes was conducted in the treated cells. […] This mechanism ultimately triggers apoptosis. Additionally, the increased activity of caspase-3 results in a decrease in the expression of cyclin D1 and CDK-2 mRNA, thereby promoting the arrest of the G1 phase of the cell cycle. Othman et al. further noted that the biosynthesized M-NPs facilitate apoptosis by inhibiting the expression of the PI3K/AKT and Ras/Raf/ERK protein signaling pathways.
Invitrogen Corporation, following the manufacturer's instructions.

Cc1nn(-c2ccccc2)c(Cl)c1C=NN=C1C(=O)Nc2ccccc21 [SB]
Antioxidant activity IRP [1]: 47.66 ± 0.19 µg/mL | Caspase-3 [2]: 109.07 ± 0.18 pg/mL

Source: PMC11859031, “Assessment of the In Vitro Biological Activities of Schiff Base-Synthesized Copper Oxide Nanoparticles as an Anti-Diabetic, Anti-Alzheimer, and Anti-Cancer Agent” (Pharmaceutics, 2025)
